Read-outs that look alike come from different tables or passages of the source.
Assays:
[1] = tested on: SNU-638; assay: In vitro cell viability assay (cancer cell anti-proliferative activity), SNU-638; type: cell-based, human; details: SNU-638 cells, treated 72 hours
Experimental: (§1) The c-MET overexpressing human gastric cancer cell lines MKN45 and SNU638 were cultured in RPMI medium with 10% fetal bovine serum, penicillin (100 U/ml), and streptomycin ([…]), and the c-MET exon 14 skipping mutant human gastric cancer cell line Hs746T was cultured in DMEM media. The c-MET overexpressing human lung cancer cell line EBC-1 was cultured in MEM media with the addition of 10% fetal bovine serum, penicillin (100U/ml), and streptomycin ([…]). The normal cell line WI-38 derived from human lung tissue was cultured in EMEM medium with the addition of 10% fetal bovine serum, penicillin (100U/ml), and streptomycin ([…]).
(§2) The compound synthesized in accordance with the present invention was prepared with a raw material solution of 10 mM dissolved in DMSO (dimethyl sulfoxide), and was sequentially diluted and processed.
(§3) In order to evaluate the inhibitory activity on cell growth, cells were dispensed in a 96-well plate at a concentration of 5,000 cells/well and then treated with the compound of the present invention prepared at various concentrations for 72 hours. The absorbance measurement at 450 nm was calculated using the GraphicPad Prism 8.0 software. The IC50 value (concentration of the compound achieving 50% cytostatic inhibition) is the average value of the measured results. […]

[2] = tested on: EBC-1; assay: In vitro cell viability assay (cancer cell anti-proliferative activity), EBC-1; type: cell-based, human; details: EBC-1 cells, treated 72 hours
Experimental: as §1, §2, §3

[3] = molecular target: T1, c-MET (Homo sapiens, UniProt P08581); assay: c-MET protein degradation (Simple Western) in SNU-638 cells; type: cell-based; parameters: To evaluate the degradation efficacy of the compounds of the present invention for c-MET expressed in cells; endogenous in cells; details: SNU-638, gastric cancer cell line treated 24 hours; c-MET expression normalized to GAPDH, 0.1% DMSO = 100%; read-out: In vitro cell viability assay (nM) SNU-638 DC50
Experimental: as §1, §2
(§4) To evaluate the degradation efficacy of the compounds of the present invention for c-MET expressed in cells, cells were dispensed in a 12-well plate at a concentration of 2 × 10^5 cells/well, and then gastric cancer cell lines were treated with samples for 24 hours and lung cancer cell lines were treated for 48 hours.
(§5) To perform a western blotting assay to confirm protein expression, cells treated with a compound treated with 40 µL of RIPA buffer with a protease inhibitor for 30 minutes, collected cell lysate using a scraper on ice, and centrifuged at 4°C 15,000 rpm for 30 min to obtain a protein-containing supernatant.
(§6) Protein expression was then measured using the Simple Western Automated Western Blot System Abby instrument using 3 µg of protein for each sample. SDS and heat-induced denaturation proteins were separated by molecular weight, attached to the capillary, reacted with anti-c-MET or anti-GAPDH antibodies, which are primary antibodies, and then reacted with HRP-conjugated secondary antibodies, and analyzed the protein expression signal with compass software.
(§7) Protein expression was normalized based on the expression value of GAPDH, and the protein expression amount in each sample was measured as a percentage (%) based on 100% of samples treated with 0.1% DMSO carrier, and DC50 (concentration of a compound where 50% protein inhibition is achieved) was calculated from the change in protein expression amount due to compound treatment.

[4] = molecular target: T1, c-MET; assay: c-MET protein degradation (Simple Western) in EBC-1 cells; type: cell-based; parameters: To evaluate the degradation efficacy of the compounds of the present invention for c-MET expressed in cells; endogenous in cells; host or cells: EBC-1 (human lung cancer cell line); details: EBC-1, lung cancer cell line treated 48 hours; c-MET expression normalized to GAPDH, 0.1% DMSO = 100%; read-out: In vitro cell viability assay (nM) EBC-1 DC50
Experimental: as §1, §2, §4, §5, §6, §7

[5] = absorbance at 450 nm, read-out: In vitro cell viability assay (IC50, nM) SNU-638
[6] = absorbance at 450 nm, read-out: In vitro cell viability assay (IC50, nM) EBC-1
[7] = Homo sapiens, absorbance at 450 nm, read-out: In vitro cell viability assay (IC50, nM) SNU-638
[8] = Homo sapiens, absorbance at 450 nm, read-out: In vitro cell viability assay (IC50, nM) EBC-1

T1 sequence (P08581 25-1390): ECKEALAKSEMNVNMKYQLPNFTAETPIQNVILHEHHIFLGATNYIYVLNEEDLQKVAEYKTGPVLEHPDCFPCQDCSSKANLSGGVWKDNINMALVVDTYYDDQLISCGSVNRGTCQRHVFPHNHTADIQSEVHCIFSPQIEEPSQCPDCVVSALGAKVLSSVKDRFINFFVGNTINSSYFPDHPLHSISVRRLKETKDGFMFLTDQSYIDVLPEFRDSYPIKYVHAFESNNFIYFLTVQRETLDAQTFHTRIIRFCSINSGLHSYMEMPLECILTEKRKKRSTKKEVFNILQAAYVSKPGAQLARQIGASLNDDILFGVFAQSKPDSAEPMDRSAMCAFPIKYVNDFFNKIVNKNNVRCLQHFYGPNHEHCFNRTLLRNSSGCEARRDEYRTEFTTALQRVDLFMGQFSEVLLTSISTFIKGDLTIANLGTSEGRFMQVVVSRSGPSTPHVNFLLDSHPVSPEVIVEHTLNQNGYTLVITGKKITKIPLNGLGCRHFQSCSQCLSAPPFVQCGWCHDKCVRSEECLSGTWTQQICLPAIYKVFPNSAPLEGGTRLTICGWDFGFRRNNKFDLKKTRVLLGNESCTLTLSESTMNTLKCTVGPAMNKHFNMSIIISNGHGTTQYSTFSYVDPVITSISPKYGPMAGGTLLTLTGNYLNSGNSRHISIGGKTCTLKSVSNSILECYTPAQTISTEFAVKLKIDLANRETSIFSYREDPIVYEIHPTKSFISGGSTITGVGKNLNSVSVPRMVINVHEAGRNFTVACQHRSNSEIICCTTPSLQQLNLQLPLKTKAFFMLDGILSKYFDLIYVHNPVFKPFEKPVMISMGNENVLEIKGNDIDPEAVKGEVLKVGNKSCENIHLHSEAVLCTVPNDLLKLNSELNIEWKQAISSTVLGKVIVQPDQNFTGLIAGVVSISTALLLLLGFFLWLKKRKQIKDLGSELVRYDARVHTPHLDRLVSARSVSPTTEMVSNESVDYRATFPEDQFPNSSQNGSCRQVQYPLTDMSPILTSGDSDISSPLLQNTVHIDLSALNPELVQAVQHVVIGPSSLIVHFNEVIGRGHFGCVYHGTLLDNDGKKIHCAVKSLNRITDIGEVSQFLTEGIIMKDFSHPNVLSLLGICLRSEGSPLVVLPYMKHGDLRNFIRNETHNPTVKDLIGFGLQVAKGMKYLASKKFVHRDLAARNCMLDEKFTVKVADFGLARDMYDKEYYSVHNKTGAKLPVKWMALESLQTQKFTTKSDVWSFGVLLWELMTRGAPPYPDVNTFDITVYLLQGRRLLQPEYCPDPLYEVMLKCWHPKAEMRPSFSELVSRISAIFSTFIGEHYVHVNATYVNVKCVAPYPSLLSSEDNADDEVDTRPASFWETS

| Molecule | IC50 [1, 7] [nM] | IC50 [2, 8] [nM] | other results |
| --- | --- | --- | --- |
| 3-(6-oxo-1-(3-(5-(piperazine-1-yl)pyrimidine-2-yl)benzyl)-1,6-dihydropyridazine-3-yl)benzonitrile [Example C-6] |  |  | IC50 [1, 5]: ≤ 100 nM; IC50 [2, 6]: ≤ 100 nM |
| CN1CCN(Cc2ccc(-c3cnc(N4CCO[C@H](Cn5nnc6nc(-c7cnn(C)c7)cnc65)C4)nc3)cc2)CC1 [ABN401, reference compound] | ≤ 100 | ≤ 100 |  |
| Cn1cc(-c2cnc3c(nnn3C[C@@H]3CN(c4ncc(N5CCN(CC6CN(C(=O)OC(C)(C)C)C6)CC5)cn4)CCO3)n2)cn1 [Example B-1, tert-butyl(S)-3-((4-(2-(2-((5-(1-methyl-1H-pyrazole-4-yl)-1H-[1,2,3]triazolo[4,5-b]pyrazine-1-yl)methyl)morpholino)pyrimidine-5-il)ppiperazine-1-il)methyl)azetidine-1-carboxylate] | ≤ 100 | ≤ 100 |  |
| Cn1cc(-c2cnc3c(nnn3C[C@@H]3CN(c4ncc(N5CCN(CC6CNC6)CC5)cn4)CCO3)n2)cn1 [Example B-2] | ≤ 100 | ≤ 100 |  |
| CN1CC(CN2CCN(c3cnc(N4CCO[C@H](Cn5nnc6nc(-c7cnn(C)c7)cnc65)C4)nc3)CC2)C1 [Example B-3, (S)-2-((5-(1-methyl-1H-pyrazole-4-yl)-1H-[1,2,3]triazolo[4,5-b]pyrazine-1-yl)methyl)-4-(5-(4-((1-methylazetidine-3-yl)methyl)piperazine-1-il)pyrimidine-2-yl)morpholine] | ≤ 100 | ≤ 100 |  |
| Cn1cc(-c2cnc3c(nnn3C[C@@H]3CN(c4ncc(N5CC(CN6CCN(C(=O)OCc7ccccc7)CC6)C5)cn4)CCO3)n2)cn1 [Example B-4] | ≤ 100 | ≤ 100 |  |
| Cn1cc(-c2cnc3c(nnn3C[C@@H]3CN(c4ncc(N5CC(CN6CCNCC6)C5)cn4)CCO3)n2)cn1 [Example B-5, (S)-2-((5-(1-methyl-1H-pyrazole-4-yl)-1H-[1,2,3]triazolo[4,5-b]pyrazine-1-yl)methyl)-4-(5-(3-(piperazine-1-ylmethyl)azetidine-1-il)pyrimidine-2-yl)morpholine] | ≤ 100 | ≤ 100 |  |
| Cn1cc(-c2cnc3c(nnn3C[C@@H]3CN(c4ncc(N5CC(COCc6ccccc6)C5)cn4)CCO3)n2)cn1 [Example B-6, (S)-4-(5-(3-((benzyloxy)methyl)azetidine-1-il)pyrimidine-2-yl)-2-((5-(1-methyl-1H-pyrazole-4-yl)-1H-[1,2,3]triazolo[4,5-b]pyrazine-1-yl)methyl)morpholine] | ≤ 100 | ≤ 100 |  |
| Cn1cc(-c2cnc3c(nnn3C[C@@H]3CN(c4ncc(N5CC(CO)C5)cn4)CCO3)n2)cn1 [Example B-7, (S)-(1-(2-(2-((5-(1-methyl-1H-pyrazole-4-yl)-1H-[1,2,3]triazolo[4,5-b]pyrazine-1-yl)methyl)morpholino)pyrimidine-5-il)azetidine-3-yl)methanol] | ≤ 100 | ≤ 100 |  |
| Cc1ccc(S(=O)(=O)OCC2CN(c3cnc(N4CCO[C@H](Cn5nnc6nc(-c7cnn(C)c7)cnc65)C4)nc3)C2)cc1 [Example B-8, (S)-(1-(2-(2-((5-(1-methyl-1H-pyrazole-4-yl)-1H-[1,2,3]triazolo[4,5-b]pyrazine-1-yl)methyl)morpholino)pyrimidine-5-il)azetidine-3-yl)methyl 4-methylbenzenesulfonate] | ≤ 100 | ≤ 100 |  |
| Cn1cc(-c2cnc3c(nnn3C[C@@H]3CN(c4ncc(N5CC(CN6CCN(C(=O)OC(C)(C)C)CC6)C5)cn4)CCO3)n2)cn1 [Example B-9] | ≤ 100 | ≤ 100 |  |
| CN1CCN(CC2CN(c3cnc(N4CCO[C@H](Cn5nnc6nc(-c7cnn(C)c7)cnc65)C4)nc3)C2)CC1 [Example B-10, (S)-2-((5-(1-methyl-1H-pyrazole-4-yl)-1H-[1,2,3]triazolo[4,5-b]pyrazin-1-yl)methyl)-4-(5-(3-((4-methylpiperazine-1-yl)methyl)azetidine-1-il)pyrimidine-2-yl)morpholine] | ≤ 100 | ≤ 100 |  |
| COc1ccc(COCC2CN(c3cnc(N4CCO[C@H](Cn5nnc6nc(-c7cnn(C)c7)cnc65)C4)nc3)C2)cc1 [Example B-11, (S)-4-(5-(3-(((4-methoxybenzyl)oxy)methyl)azetidine-1-il)pyrimidine-2-yl)-2-((5-(1-methyl-1H-pyrazole-4-yl)-1H-[1,2,3]triazolo[4,5-b]pyrazine-1-yl)methyl)morpholine] | ≤ 100 | ≤ 100 |  |
| CC(C)(C)OC(=O)Nc1ccc(COCC2CN(c3cnc(N4CCO[C@H](Cn5nnc6nc(-c7cn[nH]c7)cnc65)C4)nc3)C2)cc1 [Example B-12, tert-butyl(S)-(4-(((1-(2-(2-((5-(1H-pyrazole-4-yl)-1H-[1,2,3]triazolo[4,5-b]pyrazine-1-yl)methyl)morpholino)pyrimidine-5-il)azetidine-3-il)methoxy)methyl)phenyl)carbamate] |  |  | IC50 [1, 5]: ≤ 1000 nM; IC50 [2, 6]: ≤ 1000 nM |
| Cn1cc(-c2cnc3c(nnn3C[C@@H]3CN(c4ncc(N5CC(COCc6ccc(NC(=O)OC(C)(C)C)nc6)C5)cn4)CCO3)n2)cn1 [Example B-13] | ≤ 1000 | ≤ 1000 |  |
| CC(C)(C)OC(=O)N1CCO[C@@H](COc2cnc(-c3cccc(Cn4nc(-c5cccc(C#N)c5)ccc4=O)c3)nc2)C1 [Example C-1, tert-butyl(2R)-2-(((2-(3-((3-(3-cyanophenyl)-6-oxopyridazin-1(6H)-yl)methyl)phenyl)pyrimidine-5-yl)oxy)methyl)methyl-4-carboxylate] | ≤ 100 | ≤ 100 |  |
| N#Cc1cccc(-c2ccc(=O)n(Cc3cccc(-c4ncc(OC[C@@H]5CNCCO5)cn4)c3)n2)c1 [Example C-2, (S)-3-(1-(3-(5-(morpholine-2-ylmethoxy)pyrimidine-2-yl)benzyl)-6-oxo-1,6-dihydropyridazine-3-yl)benzonitrile] | ≤ 100 | ≤ 100 |  |
| CC(C)(C)OC(=O)N1CCN(CCOc2cnc(-c3cccc(Cn4nc(-c5cccc(C#N)c5)ccc4=O)c3)nc2)CC1 [Example C-3] | ≤ 100 | ≤ 100 |  |
| N#Cc1cccc(-c2ccc(=O)n(Cc3cccc(-c4ncc(OCCN5CCNCC5)cn4)c3)n2)c1 [Example C-4, 3-(6-oxo-1-(3-(5-(2-(piperazine-1-yl)ethoxy)pyrimidine-2-yl)benzyl)-1,6-dihydropyridazine-3-yl)benzonitrile] | ≤ 100 | ≤ 100 |  |
| CC(C)(C)OC(=O)N1CCN(c2cnc(-c3cccc(Cn4nc(-c5cccc(C#N)c5)ccc4=O)c3)nc2)CC1 [Example C-5] |  |  | IC50 [1, 5]: ≤ 100 nM; IC50 [2, 6]: ≤ 100 nM |
| N#Cc1cccc(-c2ccc(=O)n(Cc3cccc(-c4ncc(OC[C@@H]5CN(c6ccc(NC7CCC(=O)NC7=O)cc6F)CCO5)cn4)c3)n2)c1 (stereo partly drawn) [Example E-3, 3-(1-(3-(5-(((2R)-4-(4-((2,6-dioxopiperidin-3-yl)amino)-2-fluorophenyl)morpholine-2-yl)methoxy)pyrimidine-2-yl)benzyl)6-oxo-1,6-dihydropyridazine-3-il)benzonitrile] |  |  | IC50 ([1]; Homo sapiens, read-out: In vitro cell viability assay (nM) SNU-638 IC50): ≤ 100 nM; IC50 ([2]; Homo sapiens, read-out: In vitro cell viability assay (nM) EBC-1 IC50): ≤ 100 nM; DC50 [3]: > 1000 nM; DC50 [4]: > 1000 nM |
